Test results published in US12686687B2, “Compounds and uses thereof” (Foghorn Therapeutics Inc., priority 2019, dated 2026).

Target: T1, Nanoluciferase-BRD9 fusion protein (3×FLAG-NLuc-BRD9) in SYO-1 cells (Homo sapiens, UniProt Q9H8M2)
T1 construct: expressed in transfected cells; host or cells: SYO-1
T1 sequence (Q9H8M2 1-597): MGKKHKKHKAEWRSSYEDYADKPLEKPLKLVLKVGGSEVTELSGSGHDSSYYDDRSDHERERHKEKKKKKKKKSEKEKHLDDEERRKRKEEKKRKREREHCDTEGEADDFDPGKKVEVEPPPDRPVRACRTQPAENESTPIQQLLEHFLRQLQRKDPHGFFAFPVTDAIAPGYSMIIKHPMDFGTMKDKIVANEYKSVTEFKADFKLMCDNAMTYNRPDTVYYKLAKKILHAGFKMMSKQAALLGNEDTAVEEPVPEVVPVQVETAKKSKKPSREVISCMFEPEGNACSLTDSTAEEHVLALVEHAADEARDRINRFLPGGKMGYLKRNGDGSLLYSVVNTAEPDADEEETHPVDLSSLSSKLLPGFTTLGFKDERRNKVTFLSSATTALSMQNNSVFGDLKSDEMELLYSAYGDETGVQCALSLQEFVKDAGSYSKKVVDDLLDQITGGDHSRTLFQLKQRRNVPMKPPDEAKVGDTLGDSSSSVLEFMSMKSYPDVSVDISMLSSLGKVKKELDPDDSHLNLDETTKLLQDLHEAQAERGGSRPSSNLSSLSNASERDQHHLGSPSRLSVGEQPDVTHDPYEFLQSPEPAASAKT
Test: SYO1 BRD9 NanoLuc degradation assay
Type: cell-based
Details: Table 6C; SYO-1 cells expressing 3×FLAG-NLuc-BRD9, 6 hours incubation, 1 μM top dose; read-out: SYO1 BRD9-NanoLuc degradation IC50
In short: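 Stable SYO-1 line expressing 3×FLAG-NLuc-BRD9 was seeded at 8000 cells/well, then treated next day for 6 h with 10-point 3-fold dilutions (top 1 μM final). Nano-Glo luminescence was read. % inhibition was normalised to DMSO (high control) and 1 μM reference BRD9 degrader (low control).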

Structure (SMILES)	DC50 [nM]
COc1cc(-c2cn(C)c(=O)c3ccsc23)cc(OC)c1C1CCN(c2ccc3c(c2)C(=O)N(C2CCC(=O)NC2=O)C3)CC1 (centres unmarked) [Compound D123]	< 10
COc1cc(-c2cn(C)c(=O)c3cc(C(=O)NC4CCN(c5cccc(CN6CCC(=O)NC6=O)c5)CC4)sc23)cc(OC)c1CN(C)C [Compound D124]	< 10
Cn1cc(-c2ccc(-c3ccc4c(c3)C(=O)N(C3CCC(=O)NC3=O)C4)c(C(F)(F)F)c2)c2sccc2c1=O (centres unmarked) [Compound D125]	< 10
COc1cc(-c2cn(C)c(=O)c3cc(C(=O)NC4CCN(C5CCN(c6ccc7c(c6)C(=O)N(C6CCC(=O)NC6=O)C7)CC5(F)F)CC4)sc23)cc(OC)c1CN(C)C (centres unmarked) [Compound D126]	< 10
COc1cc(-c2cn(C)c(=O)c3cc(C(=O)NC4CCN(C5CCN(c6ccc7c(c6)CN(C6CCC(=O)NC6=O)C7=O)CC5(F)F)CC4)sc23)cc(OC)c1CN(C)C (centres unmarked) [Compound D127]	< 10
Cn1cc(-c2cccc(C(F)(F)F)c2)c2sc(C(=O)NC3CCN(c4ccc5c(c4)C(=O)N(C4CCC(=O)NC4=O)C5)CC3)cc2c1=O (centres unmarked) [Compound D128]	< 10
CCc1cc(OC)cc(-c2cn(C)c(=O)c3cc(C(=O)NC4CCN(c5ccc6c(c5)C(=O)N(C5CCC(=O)NC5=O)C6)CC4(F)F)sc23)c1 (centres unmarked) [Compound D129]	< 10
COc1cc(-c2cn(C)c(=O)c3cc(C(=O)NC4CCN(CCN5CCN(c6ccc7c(c6)C(=O)N(C6CCC(=O)NC6=O)C7)CC5)CC4)sc23)cc(OC)c1CN(C)C (centres unmarked) [Compound D130]	< 10
COc1cc(OC)cc(-c2cn(C)c(=O)c3cc(C(=O)NC4CCN(c5ccc6c(c5)C(=O)N(C5CCC(=O)NC5=O)C6)CC4(F)F)sc23)c1 (centres unmarked) [Compound D131]	< 10
COc1cc(-c2cn(C)c(=O)c3cc(C)sc23)cc(OC)c1CN1CCC2(CC1)CN(c1ccc3c(c1)C(=O)N(C1CCC(=O)NC1=O)C3)C2 (centres unmarked) [Compound D132]	< 10
COc1cc(-c2cn(C)c(=O)c3cc(C(=O)N(C)C)sc23)cc(OC)c1CN1CCC2(CC1)CN(c1ccc3c(c1)C(=O)N(C1CCC(=O)NC1=O)C3)C2 (centres unmarked) [Compound D133]	< 10
COc1cc(-c2cn(C)c(=O)c3cc(C(=O)N[C@@H]4CCN(C5CCN(c6ccc7c(c6)C(=O)N([C@@H]6CCC(=O)NC6=O)C7)CC5)CC4(F)F)sc23)cc(OC)c1CN(C)C [Compound D134]	< 10
COc1cc(-c2cn(C)c(=O)c3cc(C(=O)N[C@@H]4CCN(C5CCN(c6ccc7c(c6)C(=O)N([C@@H]6CCC(=O)NC6=O)C7)CC5)CC4(F)F)sc23)cc(OC)c1CN(C)C [Compound D135]	< 10
COc1cc(-c2cn(C)c(=O)c3ccsc23)cc(OC)c1CN1[C@H](C)CN(c2ccc3c(c2)CN(C2CCC(=O)NC2=O)C3=O)C[C@H]1C (some centres unmarked) [Compound D136]	< 10
COc1cc(-c2cn(C)c(=O)c3cc(C(=O)NC4CCN(C5CC6(C5)CN(c5ccc7c(c5)CN(C5CCC(=O)NC5=O)C7=O)C6)CC4(F)F)sc23)cc(OC)c1CN(C)C (centres unmarked) [Compound D137]	> 100
CNC(=O)c1cc2c(=O)n(C)cc(-c3cc(OC)c(CN4CCC5(CC4)CN(c4ccc6c(c4)C(=O)N(C4CCC(=O)NC4=O)C6)C5)c(OC)c3)c2s1 (centres unmarked) [Compound D138]	< 10
COc1cc(-c2cn(C)c(=O)c3cc(C#N)sc23)cc(OC)c1CN1CCC2(CC1)CN(c1ccc3c(c1)C(=O)N(C1CCC(=O)NC1=O)C3)C2 (centres unmarked) [Compound D139]	< 10
COc1cc(-c2cn(C)c(=O)c3cc(C(=O)N[C@H]4CCN(C5CCN(c6ccc7c(c6)C(=O)N([C@@H]6CCC(=O)NC6=O)C7)CC5)CC4(F)F)sc23)cc(OC)c1CN(C)C [Compound D140]	< 10
COc1cc(-c2cn(C)c(=O)c3cc(C(=O)N[C@H]4CCN(C5CCN(c6ccc7c(c6)C(=O)N([C@H]6CCC(=O)NC6=O)C7)CC5)CC4(F)F)sc23)cc(OC)c1CN(C)C [Compound D141]	< 10
COc1cc(-c2cn(C)c(=O)c3cc(C(=O)NC4CCN(C5CCN(c6ccc7c(c6)C(=O)N(C6CCC(=O)N(C)C6=O)C7)CC5)CC4(F)F)sc23)cc(OC)c1CN(C)C (centres unmarked) [Compound D142]	> 1000
COc1cc(-c2cn(C)c(=O)c3cc(C(=O)NC4CCN(c5ccc6c(c5)C(=O)N(C5CCC(=O)N(C)C5=O)C6)CC4(F)F)sc23)cc(OC)c1CN(C)C (centres unmarked) [Compound D143]	> 1000
COc1cc(-c2cn(C)c(=O)c3ccsc23)cc(OC)c1CN1[C@H](C)CN(c2ccc3c(c2)C(=O)N(C2CCC(=O)NC2=O)C3)C[C@H]1C (some centres unmarked) [Compound D144]	< 10

Structure (SMILES)	DC50 [nM]
COc1cc(-c2cn(C)c(=O)c3cc(C(=O)NC4CCN(C5CC6(C5)CN(c5ccc7c(c5)C(=O)N(C5CCC(=O)NC5=O)C7)C6)CC4(F)F)sc23)cc(OC)c1CN(C)C (centres unmarked) [Compound D145]	> 100
COc1cc(-c2cn(C)c(=O)c3cc(C(=O)NC4CCN(c5ccc6c(c5)C(=O)N(C5CCC(=O)NC5=O)C6)CC4)sc23)cc(OC)c1CN(C)C (centres unmarked) [Compound D146]	< 10
[2H]C([2H])([2H])n1cc(-c2cc(OC)c(CN3CCN(c4ccc5c(c4)C(=O)N(C4CCC(=O)NC4=O)C5)CC3)c(OC)c2)c2sccc2c1=O (centres unmarked) [Compound D147]	< 10
COc1cc(-c2cn(C)c(=O)c3c(C)c(C(=O)NC4CCN(C5CCN(c6ccc7c(c6)C(=O)N(C6CCC(=O)NC6=O)C7)CC5)CC4(F)F)sc23)cc(OC)c1CN(C)C (centres unmarked) [Compound D148]	> 1000
COc1cc(-c2cn(C)c(=O)c3cc(C(=O)NC4CC5(CCN(c6ccc7c(c6)C(=O)N(C6CCC(=O)NC6=O)C7)CC5)C4)sc23)cc(OC)c1CN(C)C (centres unmarked) [Compound D149]	< 10
COc1cc(-c2cn(C)c(=O)c3cc(C(=O)NC4CCN(C5CCN(c6ccc7c(c6)C(=O)N(C6CCC(=O)NC6=O)C7)CC5)CC4)sc23)cc(OC)c1CN(C)C (centres unmarked) [Compound D150]	< 10
COc1cc(-c2cn(C)c(=O)c3cc(C(=O)N[C@H]4CCN(c5ccc6c(c5)CN(C5CCC(=O)NC5=O)C6=O)CC4(F)F)sc23)cc(OC)c1CN(C)C (some centres unmarked) [Compound D151]	< 10
COc1cc(-c2cn(C)c(=O)c3cc(C(=O)N[C@H]4CCN(c5ccc6c(c5)C(=O)N(C5CCC(=O)NC5=O)C6)CC4(F)F)sc23)cc(OC)c1CN(C)C (some centres unmarked) [Compound D152]	< 10
COc1cc(-c2c(C)n(C)c(=O)c3ccsc23)cc(OC)c1CN1CCC(CN2CCC3(CC2)CN(c2ccc4c(c2)C(=O)N(C2CCC(=O)NC2=O)C4)C3)CC1 (centres unmarked) [Compound D153]	< 10
COc1cc(-c2cn(C)c(=O)c3cc(C(=O)N[C@@H]4CCN(c5ccc6c(c5)CN(C5CCC(=O)NC5=O)C6=O)CC4(F)F)sc23)cc(OC)c1CN(C)C (some centres unmarked) [Compound D155]	< 10
COc1cc(-c2cn(C)c(=O)c3cc(C(=O)N[C@@H]4CCN(c5ccc6c(c5)C(=O)N(C5CCC(=O)NC5=O)C6)CC4(F)F)sc23)cc(OC)c1CN(C)C (some centres unmarked) [Compound D156]	< 10
CCc1cc(-c2cn(C)c(=O)c3cc(C(=O)NC4CCN(C5CCN(c6ccc7c(c6)C(=O)N(C6CCC(=O)NC6=O)C7)CC5)CC4(F)F)sc23)cc(OC)c1CN(C)C (centres unmarked) [Compound D157]	< 10
COc1cc(-c2c(C)n(C)c(=O)c3ccsc23)cc(OC)c1CN1CCC2(CC1)CN(c1ccc3c(c1)C(=O)N(C1CCC(=O)NC1=O)C3)C2 (centres unmarked) [Compound D158]	< 10
COc1cc(-c2cn(C)c(=O)c3cc(C(=O)NC4CCN(CCCCCOc5ccc6c(c5)C(=O)N(C5CCC(=O)NC5=O)C6)CC4(F)F)sc23)cc(OC)c1CN(C)C (centres unmarked) [Compound D159]	< 10
COc1cc(-c2cn(C)c(=O)c3c(C)csc23)cc(OC)c1CN1CCC(CN2CCC3(CC2)CC(Oc2ccc4c(c2)C(=O)N(C2CCC(=O)NC2=O)C4=O)C3)CC1 (centres unmarked) [Compound D160]	< 10
COc1cc(-c2cn(C)c(=O)c3c(C)csc23)cc(OC)c1CN1CCC(CN2CCC3(CC2)CN(c2ccc4c(c2)C(=O)N(C2CCC(=O)NC2=O)C4=O)C3)CC1 (centres unmarked) [Compound D161]	< 10
COc1cc(-c2cn(C)c(=O)c3cc(C(=O)N[C@@H]4CCN(C5CCN(c6ccc7c(c6)C(=O)N(C6CCC(=O)NC6=O)C7)CC5)CC4(F)F)sc23)cc(OC)c1CN(C)C (some centres unmarked) [Compound D162]	< 10
COc1cc(-c2cn(C)c(=O)c3cc(C(=O)NC4CCN(CCCCCOc5ccc6c(c5)CN(C5CCC(=O)NC5=O)C6=O)CC4(F)F)sc23)cc(OC)c1CN(C)C (centres unmarked) [Compound D163]	< 10
COc1cc(-c2cn(C)c(=O)c3cc(C(=O)NC4CCN(c5ccc6c(c5)CN(C5CCC(=O)NC5=O)C6=O)CC4(F)F)sc23)cc(OC)c1CN(C)C (centres unmarked) [Compound D164]	< 10
COc1cc(-c2cn(C)c(=O)c3cc(C(=O)NC4CCN(c5ccc6c(c5)C(=O)N(C5CCC(=O)NC5=O)C6)CC4(F)F)sc23)cc(OC)c1CN(C)C (centres unmarked) [Compound D165]	< 10
COc1cc(-c2cn(C)c(=O)c3cc(C(=O)N[C@@H]4CCN(CCN5CCN(c6ccc7c(c6)C(=O)N(C6CCC(=O)NC6=O)C7)CC5)CC4(F)F)sc23)cc(OC)c1CN(C)C (some centres unmarked) [Compound D166]	< 10
COc1cc(-c2cn(C)c(=O)c3cc(C(=O)N[C@H]4CCN(C5CCN(c6ccc7c(c6)C(=O)N(C6CCC(=O)NC6=O)C7)CC5)CC4(F)F)sc23)cc(OC)c1CN(C)C (some centres unmarked) [Compound D167]	< 10
